The results in this text go back to patent publication US7098195B2, “Fluorinated glucosamine analogs useful for modulating post-translational glycosylations on cells” (Health Research, Inc., priority 2001, dated 2006).

The test system of test [1] is E-selectin ligand activity of CLA+ T-lymphocytes. The test is described as follows: Parallel-plate flow chamber, CLA+ T-cell tethering and rolling on E-selectin chimera. The format is cell-based, human. As to conditions: 0.1% for 1 h at 37° C. The method, then: (§1) To analyze the affects of 4-F-GlcNAc on the function of CLA on human T-cells, we examined the ability of 4-F-GlcNAc-treated (0.05, 0.1, 0.5 mM for 30 hrs) CLA-+ T-cells cultures to engage with immobilized E- and P-selectin chimera in the parallel-plate flow chamber. As described for flow cytometric analyses (Example 13), cells were first pretreated with neuraminidase to remove terminal sialic acid residues required for HECA-452 reactivity and for E- and P-selectin ligand activity of CLA. This approach allowed for the assessment on de novo synthesized CLA molecules.
(§2) Tethering and rolling of human T-cells on recombinant human E- and P-selectin-Ig chimera (provided by Dr. Robert Fuhlbrigge, Harvard Medical School) and human L-selectin-Ig (gift from Dr. Ray Camphausen, Wyeth/Genetics Institute, Inc., Cambridge, Mass.) were analyzed in the parallel-plate flow chamber under physiologic shear stress conditions (3). To prepare E- and P-selectin-Ig chimera spots, protein A (300 μg/15 μl 0.1M NaHCO3) was adsorbed to Ten-twenty-nine™ Petri dishes for 2 h at 37° C. Human serum albumin ([…] PBS) then added and incubated for 2 h at 37° C. to block non-specific binding sites. E-selectin-Ig (50 ng/50 μl PBS) or P-selectin-Ig (50 ng/50 μl PBS) solutions was pipetted directly over the pre-existing protein A spots for 18 h at 4° C. To prepare L-selectin-Ig spots, L-selectin-Ig (300 ng/15 μl PBS) or isotype control human IgG (300 ng/15 μl) were adsorbed directly to plastic (non-protein A-coated) for 18 h at 4° C. and blocked in 100% FBS for 2 h at 4° C.
(§3) CLA^+ T-cells or freshly isolated PBL were treated with neuraminidase and metabolic glycosylation inhibitors or with protease (bromelain) as described above, washed twice in HBSS, suspended at 2×10^6/ml in HBSS/10 mM HEPES/2 mM CaCl2 (H/H/Ca^++) and infused into the chamber over selectin chimeras. Protease treatment was performed to control for residual E-selectin activity not attributable to the expression of CLA on a protein scaffold. Cell tethering was permitted at 0.6 dynes/cm^2 for 1 min, then stepwise increments in shear stress every 15 sec were employed to a final shear stress level of 60 dynes/cm^2. The number of cells rolling/viewing field (at 100× magnification) was quantified at each level of shear stress in triplicates for a minimum of three experiments. […] Negative control experiments were performed in parallel, wherein cell binding was examined in H/H adhesion assay medium containing 5 mM EDTA as well as assaying cell binding to human IgG isotype control.
(§4) Utilizing the parallel-plate flow chamber under physiologic shear stress conditions, E-, P- and L-selectin ligand activities of human CLA^+ T-cells treated were analyzed in an identical manner as cells prepared for Western blotting and autoradiography studies.

Test [2] relates to P-selectin ligand activity of CLA+ T-lymphocytes. Nature of the test: Parallel-plate flow chamber, CLA+ T-cell tethering and rolling on P-selectin chimera. To be noted: 0.1% for 1 h at 37° C. In kind it is cell-based, human. As to the method:
as §1, §2, §3, §4

In test [3] the test system is L-selectin ligand activity of human CLA+ T-cells. Nature of the test: Parallel-plate flow chamber, CLA+ T-cell rolling on L-selectin chimera. As to conditions: 0.1% for 1 h at 37° C. The format is cell-based. The method, then: as §2, §3, §4
For a further test, the system named is HECA-452 epitopes. Nature of the test: Flow cytometric analysis of HECA-452 epitopes on human T-lymphocytes. The format is cell-based. To be noted: CLA^low T-cells or PBL after bromelain digestion. As to the method: Only positive cells, which were those cells with fluorescence above background autofluorescence and fluorochrome-conjugated secondary Ab staining, were analyzed.
For analysis of CLA expression on T-cells treated with glycoconjugate modifiers, CLA^+ T-cells were first pretreated with neuraminidase (0.1 U/ml at 37° C. for 1 h) to eliminate functional CLA and cleave all HECA-452 reactive epitopes from the cell surface (35–38). Since we wanted to investigate whether these compounds directly affected CLA expression and function, neuraminidase pretreatment followed by incubations with glycosylation modifiers allowed for examination of de novo synthesized CLA/HECA-452 epitopes re-expressed on the cell surface. After neuraminidase digestion, cells were then incubated with tunicamycin (0.02 mM) (an inhibitor of GlcNAc phosphotransferase, the initial step of N-glycosylation), swainsonine (0.23 mM) (an inhibitor of α-mannosidase II and complex-type N-glycosylation), 4-F-GlcNAc (0.05 mM) (putative inhibitor of poly-N-acetyllactosamine biosynthesis), BAG (an inhibitor of O-glycan biosynthesis) (<2 mM) or GlcNAc (5 mM) (negative control, naturally-occurring metabolic counterpart of 4-F-GlcNAc)for 30 h in the presence of human recombinant IL-2. […] Concentrations for BAG were selected based on maximal O-glycosylation inhibitory effects at non-growth inhibitory concentrations as previously reported (39). To determine a suitable concentration of 4-F-GlcNAc for examining glycoconjugate-modifying effects without influencing cell growth or protein synthesis, we performed preliminary growth inhibitory experiments of cells incubated with 4-F-GlcNAc for 2 cell doublings (˜36 h) at 37° C. (cell viability assessed by Trypan-blue exclusion).
Flow cytometric analysis was performed on human leukocytes utilizing both direct and indirect immunofluorescence staining approaches. All cells utilized for these experiments were washed twice with cold PBS/2%FBS and suspended at 10^7/ml PBS/1% FBS. Primary antibodies, anti-CLA (HECA-452), -CD4, -CD8, CD43 (L60) and PSGL-1 (PL-2) along with the appropriate isotype-matched control antibodies were incubated with the cells for 30 min on ice. Following two washes with PBS/2%FBS, cells were resuspended in PBS/1%FBS and fluorochrome-conjugated secondary antibodies (2 μl) and incubated for 30 min on ice.

Take bromelain: the “remaining E-selectin ligand activity” value in test [1] is < 25 % of control. Also, the P-selectin ligand activity result in test [2] is recorded as “completely eliminated”. In test [3], the L-selectin ligand activity entry is reported as “completely eliminated”. In addition, in the test with HECA-452 epitopes, the “HECA-452 expression by flow cytometry” value is “relatively unchanged”.
